Experiments:
cynomolgus Siglec-2/CD22 = cynomolgus Siglec-2/CD22 (Macaca fascicularis, UniProt A0A2K5WCZ6); test: biochemical; assay type: binding; settings: SPR, steady-state analysis; read-out: Affinity cyno CD22
Procedure: (§1) Prior to immobilization, CD22 proteins were treated with SialoExo (Genovis, Cat #G1-SM1-020) for 4 hours at 37° C. to remove native sialic acid residues.
Surface preparation for cyno CD22 protein consisted of amine coupling to Cytiva CM5 chip (Cytiva, Cat #BR100530) using the Cytiva amine coupling kit Type 2 (Cytiva, Cat #BR100633). Following the standard amine coupling protocols, EDC and NHS from the kit were mixed 1:1 and injected over flow cells 1 and 2. […] Any active carboxy groups were then capped with 1M Ethanolamine, pH 8.5 for 420s on flow cells 1 and 2.
(§2) Binding experiments of Siglec-ligand conjugated proteins or Siglec ligand compounds were performed on the surfaces prepared above in 10 mM HEPES, 150 mM NaCl, 0.05% Tween-20, pH 7.5, 1% DMSO as the running buffer. […] The compounds were then allowed to dissociate from the surface for 120 seconds. […] Solvent correction was performed using 0.5, 1, 1.5, and 2% DMSO spike into running buffer without DMSO. […] Data was analyzed using steady-state analysis in Biacore Insight Evaluation Software, version 3.0 for Siglec ligand compounds.

[1] = target: T1, mouse Siglec-2-Fc-Avi (CD22) (Mus musculus, UniProt P35329); test: SPR binding affinity to mouse CD22; settings: steady-state analysis
T1 construct: made in house
T1 sequence (P35329 22-708 limits assumed): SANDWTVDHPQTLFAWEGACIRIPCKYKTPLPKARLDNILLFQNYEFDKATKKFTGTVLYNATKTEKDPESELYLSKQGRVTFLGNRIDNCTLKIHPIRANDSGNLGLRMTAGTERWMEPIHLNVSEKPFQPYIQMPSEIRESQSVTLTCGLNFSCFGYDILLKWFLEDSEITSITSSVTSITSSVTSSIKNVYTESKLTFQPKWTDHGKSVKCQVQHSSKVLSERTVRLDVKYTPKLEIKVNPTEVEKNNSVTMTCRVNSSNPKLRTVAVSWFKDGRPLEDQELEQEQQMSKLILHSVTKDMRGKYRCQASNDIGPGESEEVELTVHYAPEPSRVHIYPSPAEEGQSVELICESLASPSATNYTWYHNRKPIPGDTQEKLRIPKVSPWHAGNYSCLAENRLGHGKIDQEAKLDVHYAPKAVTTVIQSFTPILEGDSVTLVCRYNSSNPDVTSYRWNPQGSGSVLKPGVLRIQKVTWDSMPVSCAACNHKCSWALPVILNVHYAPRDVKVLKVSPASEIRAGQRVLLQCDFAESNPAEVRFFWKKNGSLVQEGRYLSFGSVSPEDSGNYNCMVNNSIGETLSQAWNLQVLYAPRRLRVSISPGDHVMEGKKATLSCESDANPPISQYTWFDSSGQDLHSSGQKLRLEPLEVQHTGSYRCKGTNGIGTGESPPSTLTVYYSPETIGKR
Procedure: as §1
(§3) Capture of biotinylated CD22 constructs was performed using a Cytiva SA chip (BR100398) on a Biacore 8K instrument.
as §2

[2] = target: T2, human Siglec-2/CD22 protein (Homo sapiens, UniProt P20273); test: SPR binding affinity to human CD22; settings: steady-state analysis
T2 construct: purchased Acro Biosystems SI2-H82E3
T2 sequence (P20273 20-847): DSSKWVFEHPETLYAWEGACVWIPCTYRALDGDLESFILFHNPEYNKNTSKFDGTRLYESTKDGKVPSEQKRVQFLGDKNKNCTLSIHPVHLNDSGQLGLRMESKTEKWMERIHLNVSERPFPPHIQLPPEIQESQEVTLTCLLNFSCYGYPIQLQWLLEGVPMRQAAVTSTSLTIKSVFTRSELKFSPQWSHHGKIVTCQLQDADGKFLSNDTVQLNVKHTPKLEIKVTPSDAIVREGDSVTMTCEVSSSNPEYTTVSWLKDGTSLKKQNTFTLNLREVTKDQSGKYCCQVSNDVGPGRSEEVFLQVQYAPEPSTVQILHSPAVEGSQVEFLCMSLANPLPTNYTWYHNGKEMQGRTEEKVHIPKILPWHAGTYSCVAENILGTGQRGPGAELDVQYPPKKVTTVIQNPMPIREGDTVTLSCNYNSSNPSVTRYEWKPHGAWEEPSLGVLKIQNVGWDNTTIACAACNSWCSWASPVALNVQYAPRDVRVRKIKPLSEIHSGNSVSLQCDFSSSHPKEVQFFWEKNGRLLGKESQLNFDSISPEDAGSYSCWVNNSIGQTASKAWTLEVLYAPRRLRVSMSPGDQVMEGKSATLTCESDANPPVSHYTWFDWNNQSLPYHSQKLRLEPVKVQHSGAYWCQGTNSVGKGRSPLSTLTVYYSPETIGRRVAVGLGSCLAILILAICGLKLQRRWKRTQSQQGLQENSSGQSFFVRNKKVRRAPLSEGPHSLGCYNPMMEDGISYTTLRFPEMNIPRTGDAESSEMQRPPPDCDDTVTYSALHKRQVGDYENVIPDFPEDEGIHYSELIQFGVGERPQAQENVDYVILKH
Procedure: as §1, §3, §2

Sequence of cynomolgus Siglec-2/CD22 (A0A2K5WCZ6 entry or part of it): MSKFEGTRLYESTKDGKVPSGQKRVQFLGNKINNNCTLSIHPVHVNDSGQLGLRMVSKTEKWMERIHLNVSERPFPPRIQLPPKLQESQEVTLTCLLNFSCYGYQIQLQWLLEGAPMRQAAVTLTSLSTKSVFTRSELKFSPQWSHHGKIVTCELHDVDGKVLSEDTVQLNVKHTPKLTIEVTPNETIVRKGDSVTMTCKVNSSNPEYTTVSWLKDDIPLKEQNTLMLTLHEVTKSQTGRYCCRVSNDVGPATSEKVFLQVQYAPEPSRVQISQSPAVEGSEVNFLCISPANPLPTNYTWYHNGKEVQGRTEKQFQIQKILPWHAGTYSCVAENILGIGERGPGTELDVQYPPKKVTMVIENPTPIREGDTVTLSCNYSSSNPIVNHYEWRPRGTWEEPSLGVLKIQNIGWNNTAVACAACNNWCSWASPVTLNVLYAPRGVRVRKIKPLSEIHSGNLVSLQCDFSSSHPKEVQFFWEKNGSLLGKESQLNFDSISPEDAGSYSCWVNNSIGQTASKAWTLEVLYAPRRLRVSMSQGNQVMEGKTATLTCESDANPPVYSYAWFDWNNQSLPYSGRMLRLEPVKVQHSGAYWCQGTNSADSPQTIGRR

`C#CCOCCOCCNc1c(NCCCCCCO[C@]2(C(=O)O)C[C@H](O)[C@@H](NC(=O)CO)[C@H]([C@H](O)[C@H](O)CNC(=O)c3cccc(F)c3)O2)c(=O)c1=O` [Compound 234, (2R,4S,5R,6R)-2-((6-((3,4-dioxo-2-((2-(2-(prop-2-yn-1-yloxy)ethoxy)ethyl)amino)cyclobut-1-en-1-yl)amino)hexyl)oxy)-6-((1R,2R)-3-(3-fluorobenzamido)-1,2-dihydroxypropyl)-4-hydroxy-5-(2-hydroxyacetamido)tetrahydro-2H-pyran-2-carboxylic acid] was tested, and the Kd (cynomolgus Siglec-2/CD22) was 1000 to 10000 nM, the Kd [1] was 1000 to 10000 nM and the Kd [2] was 1000 to 10000 nM.
Compound `C#CCOc1ccc(CO[C@]2(C(=O)O)C[C@H](O)[C@@H](NC(=O)CO)[C@H]([C@H](O)[C@H](O)CNC(=O)Cc3ccc(-c4ccc(O)cc4)c(Cl)c3)O2)cc1` [Compound 47, (2R,4S,5R,6R)-6-((1R,2R)-3-(2-(2-chloro-4′-hydroxy-[1,1′-biphenyl]-4-yl)acetamido)-1,2-dihydroxypropyl)-4-hydroxy-5-(2-hydroxyacetamido)-2-((4-(prop-2-yn-1-yloxy)benzyl)oxy)tetrahydro-2H-pyran-2-carboxylic acid] has a Kd (cynomolgus Siglec-2/CD22) of under 1000 nM, a Kd [1] of under 1000 nM and a Kd [2] of under 1000 nM.
`CC(=O)NCCOCCOCCOCCOCCNc1c(NCCCCCCO[C@]2(C(=O)O)C[C@H](O)[C@@H](NC(=O)CO)[C@H]([C@H](O)[C@H](O)CNC(=O)Cc3ccc(Cl)cc3)O2)c(=O)c1=O` [Compound 240, (2R,4S,5R,6R)-6-((1R,2R)-3-(2-(4-chlorophenyl)acetamido)-1,2-dihydroxypropyl)-2-((6-((3,4-dioxo-2-((2-oxo-6,9,12,15-tetraoxa-3-azaheptadecan-17-yl)amino)cyclobut-1-en-1-yl)amino)hexyl)oxy)-4-hydroxy-5-(2-hydroxyacetamido) tetrahydro-2H-pyran-2-carboxylic acid] showed a Kd (cynomolgus Siglec-2/CD22) of under 1000 nM, a Kd [1] of under 1000 nM and a Kd [2] of under 1000 nM.
`C#CCOCCCCCCO[C@]1(C(=O)O)C[C@H](O)[C@@H](NC(=O)CN)[C@H]([C@H](O)[C@H](O)CNC(=O)Cc2ccc(Cl)cc2)O1` [Compound 184, (2R,4S,5R,6R)-5-(2-aminoacetamido)-6-((1R,2R)-3-(2-(4-chlorophenyl)acetamido)-1,2-dihydroxypropyl)-4-hydroxy-2-((6-(prop-2-yn-1-yloxy)hexyl)oxy)tetrahydro-2H-pyran-2-carboxylic acid] showed a Kd (cynomolgus Siglec-2/CD22) of 1000 to 10000 nM, a Kd [1] of 1000 to 10000 nM and a Kd [2] of 1000 to 10000 nM.
For `C#CCOCCOCCO[C@]1(C(=O)O)C[C@H](O)[C@@H](NC(=O)CO)[C@H]([C@H](O)[C@H](O)CNC(=O)Cc2cccc(Cl)c2)O1` [Compound 125, (2R,4S,5R,6R)-6-((1R,2R)-3-(2-(3-chlorophenyl)acetamido)-1,2-dihydroxypropyl)-4-hydroxy-5-(2-hydroxyacetamido)-2-(2-(2-(prop-2-yn-1-yloxy)ethoxy)ethoxy)tetrahydro-2H-pyran-2-carboxylic acid], the Kd (cynomolgus Siglec-2/CD22) was 1000 to 10000 nM, the Kd [1] was 1000 to 10000 nM and the Kd [2] was under 1000 nM.
In the case of `C#CCOCCOCCO[C@]1(C(=O)O)C[C@H](O)[C@@H](NC(=O)CO)[C@H]([C@H](O)[C@H](O)CNC(=O)Cc2ccc(-c3ccccc3O)cc2)O1` [Compound 68, (2R,4S,5R,6R)-6-((1R,2R)-1,2-dihydroxy-3-(2-(2′-hydroxy-[1,1′-biphenyl]-4-yl)acetamido)propyl)-4-hydroxy-5-(2-hydroxyacetamido)-2-(2-(2-(prop-2-yn-1-yloxy)ethoxy)ethoxy)tetrahydro-2H-pyran-2-carboxylic acid], the Kd (cynomolgus Siglec-2/CD22) is reported as 1000 to 10000 nM, the Kd [1] is reported as 1000 to 10000 nM and the Kd [2] is reported as under 1000 nM.
`C#Cc1ccc(CO[C@]2(C(=O)O)C[C@H](O)[C@@H](NC(=O)CO)[C@H]([C@H](O)[C@H](O)CNC(=O)Cc3ccc(Cl)cc3)O2)cc1` [Compound 114, (2R,4S,5R,6R)-6-((1R,2R)-3-(2-(4-chlorophenyl)acetamido)-1,2-dihydroxypropyl)-2-((4-ethynylbenzyl)oxy)-4-hydroxy-5-(2-hydroxyacetamido)tetrahydro-2H-pyran-2-carboxylic acid] was tested, and the Kd (cynomolgus Siglec-2/CD22) was under 1000 nM, the Kd [1] was under 1000 nM and the Kd [2] was under 1000 nM.
For `C#CCOCCCCCCS[C@]1(C(=O)O)C[C@H](O)[C@@H](NC(=O)CO)[C@H]([C@H](O)[C@H](O)CNC(=O)Cc2ccc(Cl)cc2)O1` [Compound 186, (2S,4S,5R,6R)-6-((1R,2R)-3-(2-(4-chlorophenyl)acetamido)-1,2-dihydroxypropyl)-4-hydroxy-5-(2-hydroxyacetamido)-2-((6-(prop-2-yn-1-yloxy)hexyl)thio)tetrahydro-2H-pyran-2-carboxylic acid], the Kd (cynomolgus Siglec-2/CD22) was under 1000 nM, the Kd [1] was under 1000 nM and the Kd [2] was under 1000 nM.
In the case of `C#CCOc1ccccc1-c1cn([C@]2(C(=O)O)C[C@H](O)[C@@H](NC(=O)CO)[C@H]([C@H](O)[C@H](O)CNC(=O)Cc3ccc(-c4ccc(O)cc4)cc3)O2)nn1` [Compound 59, (2R,4S,5R,6R)-6-((1R,2R)-1,2-dihydroxy-3-(2-(4′-hydroxy-[1,1′-biphenyl]-4-yl)acetamido)propyl)-4-hydroxy-5-(2-hydroxyacetamido)-2-(4-(2-(prop-2-yn-1-yloxy)phenyl)-1H-1,2,3-triazol-1-yl)tetrahydro-2H-pyran-2-carboxylic acid], the Kd (cynomolgus Siglec-2/CD22) is reported as 1000 to 10000 nM, the Kd [1] is reported as 1000 to 10000 nM and the Kd [2] is reported as under 1000 nM.
`C#CCOCCOCCO[C@]1(C(=O)O)C[C@H](O)[C@@H](NC(=O)CO)[C@H]([C@H](O)[C@H](O)CNC(=O)Cc2ccc3c(c2)NC(=O)C3)O1` [Compound 12, (2R,4S,5R,6R)-6-((1R,2R)-1,2-dihydroxy-3-(2-(2-oxoindolin-6-yl)acetamido)propyl)-4-hydroxy-5-(2-hydroxyacetamido)-2-(2-(2-(prop-2-yn-1-yloxy)ethoxy)ethoxy)tetrahydro-2H-pyran-2-carboxylic acid] showed a Kd (cynomolgus Siglec-2/CD22) of over 10000 nM and a Kd [2] of 1000 to 10000 nM.
`C#CCOCCOCCO[C@]1(C(=O)O)C[C@H](O)[C@@H](NC(=O)CO)[C@H]([C@H](O)[C@H](O)CNC(=O)Cc2ccc(-c3ccncc3)cc2)O1` [Compound 72, (2R,4S,5R,6R)-6-((1R,2R)-1,2-dihydroxy-3-(2-(4-(pyridin-4-yl)phenyl)acetamido)propyl)-4-hydroxy-5-(2-hydroxyacetamido)-2-(2-(2-(prop-2-yn-1-yloxy)ethoxy)ethoxy)tetrahydro-2H-pyran-2-carboxylic acid] was tested, and the Kd (cynomolgus Siglec-2/CD22) was over 10000 nM and the Kd [2] was 1000 to 10000 nM.
In the case of `CC(=O)NCCOCCOCCOCCOCCn1cc(CCCCCCO[C@]2(C(=O)O)C[C@H](O)[C@@H](NC(=O)CO)[C@H]([C@H](O)[C@H](O)CNC(=O)Cc3ccc(Cl)cc3)O2)nn1` [Compound 263, (2R,4S,5R,6R)-6-((1R,2R)-3-(2-(4-chlorophenyl)acetamido)-1,2-dihydroxypropyl)-4-hydroxy-5-(2-hydroxyacetamido)-2-((6-(1-(2-oxo-6,9,12,15-tetraoxa-3-azaheptadecan-17-yl)-1H-1,2,3-triazol-4-yl)hexyl)oxy)tetrahydro-2H-pyran-2-carboxylic acid], the Kd [1] is reported as 1000 to 10000 nM and the Kd [2] is reported as under 1000 nM.

Source: patent US20250064941A1, “SIGLEC LIGANDS, CONJUGATES, AND METHODS OF USE THEREOF” (Osprey Biopharmaceuticals, Inc., priority 2023, published 2025)
